Like-named read-outs stand apart in the source and are kept apart here.
Legend:
METΔex14‐mutated NSCLC = settings: global population, cited from earlier work
GEOMETRY mono-1: safety = type: in vivo, human

Compound: CNC(=O)c1ccc(-c2cnc3ncc(Cc4ccc5ncccc5c4)n3n2)cc1F [capmatinib, Capmatinib]
- ORR by BIRC (METΔex14‐mutated NSCLC; first‐line, 28 patients): 68%
- Median DOR in responders (METΔex14‐mutated NSCLC; first‐line): 12.6 months
- Intracranial responses, share of patients (METΔex14‐mutated NSCLC; patients with evaluable brain metastases at baseline): about half
- ORR by BIRC (METΔex14‐mutated NSCLC; second‐/third‐line, 69 patients): 41%
- Tumor shrinkage (METΔex14‐mutated NSCLC; second‐/third‐line, in two patients): > 90%
- Median DOR in responders (METΔex14‐mutated NSCLC; second‐/third‐line): 9.7 months
- Treatment‐related AE: Nausea (GEOMETRY mono-1: safety; 45 Japanese patients): 35.6%
- Treatment‐related AE: Oedema peripheral (GEOMETRY mono-1: safety; 45 Japanese patients): 31.1%
- Treatment‐related AE: blood creatinine increased (GEOMETRY mono-1: safety; 45 Japanese patients): 53.3%
- Capmatinib interrupted due to AEs (GEOMETRY mono-1: safety; METΔex14 1L group (n = 2)): both
- Discontinuation from treatment phase, reason: Adverse event (GEOMETRY mono-1: safety; METΔex14 1L group (n = 2)): 1 (50.0) n (%) of patients
- Capmatinib interrupted due to AEs (GEOMETRY mono-1: safety; METΔex14 2/3L group (n = 11)): 10 patients
- Discontinuation from treatment phase, reason: Adverse event (GEOMETRY mono-1: safety; METΔex14 2/3L group (n = 11)): 3 (27.3) n (%) of patients
- Dose reductions due to AEs (GEOMETRY mono-1: safety; METΔex14 2/3L group (n = 11)): eight
- AEs leading to permanent discontinuation (GEOMETRY mono-1: safety; all patients (n = 45)): 8 (17.8) n (%) of patients
- AEs requiring dose adjustment/interruption (GEOMETRY mono-1: safety; all patients (n = 45)): 30 (66.7) n (%) of patients
- Any AE (GEOMETRY mono-1: safety; all patients (n = 45)): 45 (100.0) n (%) of patients
- Any grade 3/4 AE (GEOMETRY mono-1: safety; all patients (n = 45)): 33 (73.3) n (%) of patients
- Any grade 3/4 serious AE (GEOMETRY mono-1: safety; all patients (n = 45)): 18 (40.0) n (%) of patients
- Any serious AE (GEOMETRY mono-1: safety; all patients (n = 45)): 22 (48.9) n (%) of patients
- Any treatment‐related grade 3/4 serious AE (GEOMETRY mono-1: safety; all patients (n = 45)): 9 (20.0) n (%) of patients
- Any treatment‐related serious AE (GEOMETRY mono-1: safety; all patients (n = 45)): 12 (26.7) n (%) of patients
- Grade 3/4 AEs leading to permanent discontinuation (GEOMETRY mono-1: safety; all patients (n = 45)): 4 (8.9) n (%) of patients
- Grade 3/4 AEs requiring dose adjustment/interruption (GEOMETRY mono-1: safety; all patients (n = 45)): 22 (48.9) n (%) of patients
- Any grade 3/4 treatment‐related AE (GEOMETRY mono-1: safety; all patients (n = 45), Table 4): 25 (55.6) n (%) of patients
- Any treatment‐related AE (GEOMETRY mono-1: safety; all patients (n = 45), Table 4): 44 (97.8) n (%) of patients
- Deaths (GEOMETRY mono-1: safety; all patients (n = 45), considered related to NSCLC): 1 (2.2) n (%) of patients
- Treatment‐related AE (investigations): ALT increased (GEOMETRY mono-1: safety; any grade, n = 45): 6 (13.3) n (%) of patients
- Treatment‐related AE (investigations): AST increased (GEOMETRY mono-1: safety; any grade, n = 45): 6 (13.3) n (%) of patients
- Treatment‐related AE (investigations): Amylase increased (GEOMETRY mono-1: safety; any grade, n = 45): 8 (17.8) n (%) of patients
- Treatment‐related AE (investigations): Blood ALP increased (GEOMETRY mono-1: safety; any grade, n = 45): 4 (8.9) n (%) of patients
- Treatment‐related AE (investigations): Blood creatinine increased (GEOMETRY mono-1: safety; any grade, n = 45): 24 (53.3) n (%) of patients
- Treatment‐related AE (investigations): Lipase increased (GEOMETRY mono-1: safety; any grade, n = 45): 6 (13.3) n (%) of patients
- Treatment‐related AE (investigations): Neutrophil count decreased (GEOMETRY mono-1: safety; any grade, n = 45): 5 (11.1) n (%) of patients
- Treatment‐related AE (investigations): Platelet count decreased (GEOMETRY mono-1: safety; any grade, n = 45): 8 (17.8) n (%) of patients
- Treatment‐related AE (investigations): WBC count decreased (GEOMETRY mono-1: safety; any grade, n = 45): 4 (8.9) n (%) of patients
- Treatment‐related AE (investigations): γGT increased (GEOMETRY mono-1: safety; any grade, n = 45): 3 (6.7) n (%) of patients
- Treatment‐related AE: Anaemia (GEOMETRY mono-1: safety; any grade, n = 45): 3 (6.7) n (%) of patients
- Treatment‐related AE: Cellulitis (GEOMETRY mono-1: safety; any grade, n = 45): 3 (6.7) n (%) of patients
- Treatment‐related AE: Constipation (GEOMETRY mono-1: safety; any grade, n = 45): 5 (11.1) n (%) of patients
- Treatment‐related AE: Decreased appetite (GEOMETRY mono-1: safety; any grade, n = 45): 10 (22.2) n (%) of patients
- Treatment‐related AE: Diarrhoea (GEOMETRY mono-1: safety; any grade, n = 45): 8 (17.8) n (%) of patients
- Treatment‐related AE: Dry skin (GEOMETRY mono-1: safety; any grade, n = 45): 4 (8.9) n (%) of patients
- Treatment‐related AE: Fatigue (GEOMETRY mono-1: safety; any grade, n = 45): 4 (8.9) n (%) of patients
- Treatment‐related AE: Headache (GEOMETRY mono-1: safety; any grade, n = 45): 3 (6.7) n (%) of patients
- Treatment‐related AE: Hypoalbuminaemia (GEOMETRY mono-1: safety; any grade, n = 45): 4 (8.9) n (%) of patients
- Treatment‐related AE: Malaise (GEOMETRY mono-1: safety; any grade, n = 45): 3 (6.7) n (%) of patients
- Treatment‐related AE: Nausea (GEOMETRY mono-1: safety; any grade, n = 45): 16 (35.6) n (%) of patients
- Treatment‐related AE: Oedema peripheral (GEOMETRY mono-1: safety; any grade, n = 45): 14 (31.1) n (%) of patients
- Treatment‐related AE: Pyrexia (GEOMETRY mono-1: safety; any grade, n = 45): 7 (15.6) n (%) of patients
- Treatment‐related AE: Rash (GEOMETRY mono-1: safety; any grade, n = 45): 5 (11.1) n (%) of patients
- Treatment‐related AE: Vomiting (GEOMETRY mono-1: safety; any grade, n = 45): 12 (26.7) n (%) of patients
- Any treatment‐related AE (GEOMETRY mono-1: safety; any grade, n = 45, Table 5): 44 (97.8) n (%) of patients
- Treatment‐related AE (investigations): ALT increased (GEOMETRY mono-1: safety; grade 3/4, n = 45): 2 (4.4) n (%) of patients
- Treatment‐related AE (investigations): AST increased (GEOMETRY mono-1: safety; grade 3/4, n = 45): 2 (4.4) n (%) of patients
- Treatment‐related AE (investigations): Amylase increased (GEOMETRY mono-1: safety; grade 3/4, n = 45): 2 (4.4) n (%) of patients
- Treatment‐related AE (investigations): Blood ALP increased (GEOMETRY mono-1: safety; grade 3/4, n = 45): 0 n (%) of patients
- Treatment‐related AE (investigations): Blood creatinine increased (GEOMETRY mono-1: safety; grade 3/4, n = 45): 0 n (%) of patients
- Treatment‐related AE (investigations): Lipase increased (GEOMETRY mono-1: safety; grade 3/4, n = 45): 3 (6.7) n (%) of patients
- Treatment‐related AE (investigations): Neutrophil count decreased (GEOMETRY mono-1: safety; grade 3/4, n = 45): 3 (6.7) n (%) of patients
- Treatment‐related AE (investigations): Platelet count decreased (GEOMETRY mono-1: safety; grade 3/4, n = 45): 2 (4.4) n (%) of patients
- Treatment‐related AE (investigations): WBC count decreased (GEOMETRY mono-1: safety; grade 3/4, n = 45): 1 (2.2) n (%) of patients
- Treatment‐related AE (investigations): γGT increased (GEOMETRY mono-1: safety; grade 3/4, n = 45): 1 (2.2) n (%) of patients
- Treatment‐related AE: Anaemia (GEOMETRY mono-1: safety; grade 3/4, n = 45): 1 (2.2) n (%) of patients

— publication PMC8019204 (Cancer Science, 2021)
